Tests used:
Rat SKPs = assay: Ki67 immunostaining of rat SKP spheres; conditions: rat SKPs cultured 3-4 days, treated daily for a further 2 days
Method: Finally, SKP proliferation was directly measured. Rat SKPs were cultured for 3-4 days, treated with Alp or TM daily for a further 2 days, and immunostained with the proliferation marker Ki67.

CREB = assay: Western blot of phosphorylated, activated CREB in SKPs; conditions: 100 nM
Akt1 = assay: Western blot of phosphorylated, activated Akt1 in SKPs; conditions: 100 nM
GSK3beta = assay: Western blot of phosphorylated, activated GSK3beta in SKPs; conditions: 100 nM
STAT3 = assay: Western blot of phosphorylated, activated STAT3 in SKPs; conditions: 100 nM
SKPs [1] = assay: 7 day sphere assay with MEK inhibition; conditions: with 100 nM trametinib
SKPs [2] = assay: Clonal density assay in methylcellulose (SKPs self renewal and proliferation); format: cell-based; conditions: for sphere number versus control / sphere size versus control: 100 nM, scored after 14 days, 2,500 cells/mL, 1.6% methylcellulose; for sphere numbers, comparison with latanoprost: treatment for 14 days (FIG. 1L)
Text: Finally, SKP proliferation was directly measured.

neonatal rat SKPs = assay: Secondary sphere formation assay / dose-response with rat SKPs; conditions: for rat SKPs sphere number: 100 nM, neonatal rat SKPs; for sphere numbers, dose-response curve: rat SKPs
Method: Alp and TM were further characterized by dose-response curves with rat SKPs. […] A clonal density assay was also performed to validate the effect of drugs on SKPs self renewal and proliferation. As previously described in Jinno et al., Stem Cells 28:2027-2040, 2010, SKPs were dissociated and plated at 2,500 cells/mL in medium containing 1.6% methylcellulose. Cells were then treated with 100 nM of Alp, TM, Alp and TM, or DMSO and sphere formation was scored after 14 days. […] For comparison, cells were also treated with latanoprost (Latan), a prostaglandin (PGF2) that is bioactive in rodent and human skin. […] Finally, SKP proliferation was directly measured. Rat SKPs were cultured for 3-4 days, treated with Alp or TM daily for a further 2 days, and immunostained with the proliferation marker Ki67.

[3] = tested on: back skin wound of C57/B16 mice; assay: Full Thickness Biopsy Punch Wound model, topical application; conditions: for Ki67-positive proliferating dermal cells at the leading edge of the newly formed dermis: 7 days post-injury; for dermal tissue regeneration (layer of new dermal tissue) / epithelial gap / wound width: day 9, morphometric analysis; for CD31-positive blood vessels in the wound bed: leading edge of the newly formed dermis; for mice fully healed on day 7: topical daily, day 7 post-wounding, none of the vehicle treated controls
Method: The effects of Alp and TM were further validated in in vivo rodent models. The model used was a Full Thickness Biopsy Punch Wound performed on the back skin of middle-aged (9 months old) C57/B16 mice (FIGS. 2A-2I). In these experiments, the hair on the back skin was shaved to expose skin and a 6 mm diameter wound was performed with a biopsy punch. Alp, TM, or vehicle were reconstituted in a composition of water-ethanol-propylene glycol (PG) and applied daily around the wound for the duration of 9 days. Topical analysis was performed to assess the degree of wound closure as well as morphometric analysis. For the analysis of wound closure, digital photographs were taken at day 0, 3, 7, and 9 post wounding. A ruler was used to calibrate the images and the wound margins were manually outlined. The wound closure rate was calculated as a percentage of the wound size on the day of surgery as previously reported in Johnston et al., Stem Cell Reports. […] Morphometric analyses of wound parameters were performed on hematoxylin and eosin-stained paraffin tissue sections from the central portion of the wound bed. Sections were scanned and images were stitched together to show the full wound bed. Morphometric analysis of different parameters was performed as described previously in Johnston et al., supra.

SKPs [4] = assay: Sphere forming assay of SKPs isolated from topically treated wound bed or skin; conditions: in vivo topical application
Method: To assess whether the effects of topical application of Alp and TM were specific and due to recruitment of SKPs in vivo, an experiment was performed in which the drugs were applied topically for one week on the back skin of aged wounded or not wounded mice. The wound bed or control skin was dissected and SKPs were isolated and allowed to form spheres. Secondary SKP spheres were then used in a sphere forming assay.

ERK1/2 = assay: Western blot of phosphorylated, activated ERK1/2 in SKPs; conditions: 100 nM, SKPs cultured in FGF2 and EGF
back skin of mice = assay: Skin assays: dermal thickness and proliferation after topical application; conditions: for number of Ki67 positive proliferating cells in the dermis: one week of topical treatment; for dermal thickness: three weeks of topical treatment
Method: Drugs were applied daily on the depilated area for the duration of three weeks. […] In the skin assays, the back hair of mice was shaved to expose skin and drugs were topically applied for the duration of one or three weeks. Skin morphology was then assessed by analyzing dermal thickness and proliferation.

human SKPs = assay: Dose response sphere forming assay in human SKPs cultures; conditions: for human SKPs sphere number: 100 nM; for validation of hits in dose response sphere forming assays: secondary screens, rodent and human SKPs cultures

Row | Compound | increase of Ki67-positive sphere cells (Rat SKPs) | phosphorylated, activated CREB compared to control (CREB) | phosphorylated, activated Akt1 compared to control (Akt1) | phosphorylated, activated GSK3beta compared to control (GSK3beta) | phosphorylated, activated STAT3 compared to control (STAT3) | compensation of the trametinib-induced decrease in sphere number (SKPs [1]) | sphere number versus control (SKPs [2]) | sphere size versus control (SKPs [2]) | sphere numbers, comparison with latanoprost (SKPs [2]) | rat SKPs sphere number (neonatal rat SKPs) | sphere numbers, dose-response curve (neonatal rat SKPs) | Ki67-positive proliferating dermal cells at the leading edge of the newly formed dermis [3] | dermal tissue regeneration (layer of new dermal tissue) [3] | epithelial gap [3] | wound width [3] | CD31-positive blood vessels in the wound bed [3] | mice fully healed on day 7 [3] | long term self-renewal of SKPs (SKPs [4]) | human SKPs sphere number (human SKPs) | validation of hits in dose response sphere forming assays (human SKPs) | further results
1 | CCCCC[C@H](O)/C=C/[C@H]1[C@H](O)CC(=O)[C@@H]1CCCCCCC(=O)O [Alp, alprostadil] | approximately 60% | neither Alp nor TM increased | neither Alp nor TM increased | neither Alp nor TM increased | neither Alp nor TM increased | neither TM nor Alp compensated | robust increase | robust increase | significant increase | increase | increased in a dose-dependent fashion | increased | enhanced | significantly smaller | significantly smaller | increased | almost half | enhance | increase | confirmed | increase of ERK1/2 phosphorylation over basal levels (ERK1/2): approximately two-fold; number of Ki67 positive proliferating cells in the dermis (back skin of mice): increased; dermal thickness (back skin of mice): increase
2 | O=c1c(O)c(-c2ccc(O)cc2)oc2cc(O)cc(O)c12 [Kae, kaempferol] | – | – | – | – | – | – | – | – | – | increase | – | – | – | – | – | – | – | – | increase | confirmed | –
3 | CC(C)OC(=O)CCC/C=C\C[C@@H]1[C@@H](CC[C@@H](O)CCc2ccccc2)[C@H](O)C[C@@H]1O [Latan, latanoprost] | – | – | – | – | – | – | – | – | significant increase | – | – | – | – | – | – | – | – | – | – | – | –
4 | CC[N+](CC)(CC)CCOc1ccc(/C=C/c2ccccc2)cc1 [MG 624] | – | – | – | – | – | – | – | – | – | increase | – | – | – | – | – | – | – | – | increase | confirmed | –
5 | CCCCOc1ccc(OCCCN2CCOCC2)cc1 [Pram, pramoxine] | – | – | – | – | – | – | – | – | – | increase | – | – | – | – | – | – | – | – | increase | confirmed | –
6 | trimebutine maleate [TM] | approximately 60% | neither Alp nor TM increased | neither Alp nor TM increased | neither Alp nor TM increased | neither Alp nor TM increased | neither TM nor Alp compensated | robust increase | robust increase | significant increase | increase | increased in a dose-dependent fashion | increase | enhanced | significantly smaller | significantly smaller | increased | almost half | enhance | increase | confirmed | increase of ERK1/2 phosphorylation over basal levels (ERK1/2): approximately two-fold; number of Ki67 positive proliferating cells in the dermis (back skin of mice): increased; dermal thickness (back skin of mice): increase

Reference: patent US9962360B2, “Compositions and methods for enhancing hair growth, promoting skin regeneration, and wound healing” (The Hospital for Sick Children, priority 2014, dated 2018)
